Laboratory results published in US20240124417A1, “COMPOUNDS USEFUL AS IMMUNOMODULATORS” (Bristol-Myers Squibb Company, priority 2019, published 2024).

These molecules were tested against T1, PD-1/PD-L1 (Homo sapiens, UniProt Q9NZQ7) (assay: PD-1/PD-L1 Homogenous Time-Resolved Fluorescence (HTRF) binding assay). Settings: PD-L1-His 10 nM, PD-1-Ig 20 nM.
T1 construct: TVMV protease site linker (C); made in house; host or cells: HEK293T cells
In short: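 Inhibitors pre-incubated 15 min with PD-L1-His extracellular domain (10 nM final) in dPBS with 0.1% BSA and 0.05% Tween-20, then PD-1-Ig (20 nM final) added for a further 15 min. Read-out by HTRF with europium cryptate anti-Ig (1 nM) and APC anti-His (20 nM). Related pairs: PD-1-Ig/PD-L2-His (20/5 nM), CD80-His/PD-L1-Ig (100/10 nM).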

T1 sequence (Q9NZQ7 18-239): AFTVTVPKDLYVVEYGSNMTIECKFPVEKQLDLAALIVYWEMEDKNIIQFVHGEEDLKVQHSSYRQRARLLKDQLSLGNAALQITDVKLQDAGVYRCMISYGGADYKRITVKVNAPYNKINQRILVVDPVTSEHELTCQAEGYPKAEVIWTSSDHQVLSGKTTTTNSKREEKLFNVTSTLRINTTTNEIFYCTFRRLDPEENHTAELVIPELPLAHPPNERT

| SMILES | IC50 |
| --- | --- |
| Cc1c(COc2cc(OCc3cncc(C#N)c3)c(CNCc3ncn[nH]3)cc2Cl)cccc1-c1cccc(OCCCN2CCC(O)(CO)CC2)c1Cl [Example 2009, 5-((2-((((1H-1,2,4-triazol-5-yl)methyl)amino)methyl)-4-chloro-5-((2′-chloro-3′-(3-(4-hydroxy-4-(hydroxymethyl)piperidin-1-yl)propoxy)-2-methyl-[1,1′-biphenyl]-3-yl)methoxy)phenoxy)methyl)nicotinonitrile] | 2.1 nM |
| Cc1cc(CNCc2cc(Cl)c(OCc3cccc(-c4cccc(OCCCN5CC[C@@H](O)C5)c4C)c3C)cc2OCc2cncc(C#N)c2)no1 [Example 2528, (R)-5-((4-chloro-5-((3′-(3-(3-hydroxypyrrolidin-1-yl)propoxy)-2,2′-dimethyl-[1,1′-biphenyl]-3-yl)methoxy)-2-((((5-methylisoxazol-3-yl)methyl)amino)methyl)phenoxy)methyl)nicotinonitrile] | 3.1 nM |
| Cc1c(COc2cc(OCc3cncc(C#N)c3)c(CNCc3cncnc3)cc2Cl)cccc1-c1cccc(OCCCN2CC[C@@H](O)C2)c1C [Example 2022, (R)-5-((4-chloro-5-((3′-(3-(3-hydroxypyrrolidin-1-yl)propoxy)-2,2′-dimethyl-[1,1′-biphenyl]-3-yl)methoxy)-2-(((pyrimidin-5-ylmethyl)amino)methyl)phenoxy)methyl)nicotinonitrile] | 0.8 nM |
| Cc1c(COc2cc(OCc3cncc(C#N)c3)c(CN(C)Cc3ncc[nH]3)cc2Cl)cccc1-c1cccc(OCCCN2CCC(O)(CO)CC2)c1Cl [Example 2015, 5-((2-((((1H-imidazol-2-yl)methyl)(methyl)amino)methyl)-4-chloro-5-((2′-chloro-3′-(3-(4-hydroxy-4-(hydroxymethyl)piperidin-1-yl)propoxy)-2-methyl-[1,1′-biphenyl]-3-yl)methoxy)phenoxy)methyl)nicotinonitrile] | 3.1 nM |
| COCc1noc(CNCc2cc(Cl)c(OCc3cccc(-c4cccc(OCC5CCCN(C)C5)c4Cl)c3C)cc2OCc2cncc(C#N)c2)n1 (stereo not drawn) [Example 2595, 5-((4-chloro-5-((2′-chloro-2-methyl-3′-((1-methylpiperidin-3-yl)methoxy)-[1,1′-biphenyl]-3-yl)methoxy)-2-((((3-(methoxymethyl)-1,2,4-oxadiazol-5-yl)methyl)amino)methyl)phenoxy)methyl)nicotinonitrile] | 2 nM |
| Cc1c(COc2cc(OCc3cncc(C#N)c3)c(CN3CCc4c(ncn4C)C3)cc2Cl)cccc1-c1cccc(OCCCN2CC[C@@H](O)C2)c1C [Example 2502] | 0.9 nM |
| Cc1nc2c(s1)CN(Cc1cc(Cl)c(OCc3cccc(-c4cccc(OCCCN5CC[C@@H](O)C5)c4C)c3C)cc1OCc1cncc(C#N)c1)CC2 [Example 2503, (R)-5-((4-chloro-5-((3′-(3-(3-hydroxypyrrolidin-1-yl)propoxy)-2,2′-dimethyl-[1,1′-biphenyl]-3-yl)methoxy)-2-((2-methyl-6,7-dihydrothiazolo[5,4-c]pyridin-5(4H)yl)methyl)phenoxy)methyl)nicotinonitrile] | 3.9 nM |
| Cc1c(COc2cc(OCc3cncc(C#N)c3)c(CNCc3cccnc3Cl)cc2Cl)cccc1-c1cccc(OCC2CCCN(C)C2)c1Cl (stereo not drawn) [Example 2621, 5-((4-chloro-5-((2′-chloro-2-methyl-3′-((1-methylpiperidin-3-yl)methoxy)-[1,1′-biphenyl]-3-yl)methoxy)-2-((((2-chloropyridin-3-yl)methyl)amino)methyl)phenoxy)methyl)nicotinonitrile] | 8.9 nM |
| Cc1c[nH]c(CN(C)Cc2cc(Cl)c(OCc3cccc(-c4cccc(OCCCN5CC[C@@H](O)C5)c4C)c3C)cc2OCc2cncc(C#N)c2)n1 [Example 2024, (R)-5-((4-chloro-5-((3′-(3-(3-hydroxypyrrolidin-1-yl)propoxy)-2,2′-dimethyl-[1,1′-biphenyl]-3-yl)methoxy)-2-((methyl((4-methyl-1H-imidazol-2-yl)methyl)amino)methyl)phenoxy)methyl)nicotinonitrile] | 0.6 nM |
| Cc1cc(CNCc2cc(Cl)c(OCc3cccc(-c4cccc(OCC5CCCN(C)C5)c4Cl)c3C)cc2OCc2cncc(C#N)c2)no1 (stereo not drawn) [Example 2575, 5-((4-chloro-5-((2′-chloro-2-methyl-3′-((1-methylpiperidin-3-yl)methoxy)-[1,1′-biphenyl]-3-yl)methoxy)-2-((((5-methylisoxazol-3-yl)methyl)amino)methyl)phenoxy)methyl)nicotinonitrile] | 2.8 nM |
| CC(=O)NC1CCN(CCCOc2cccc(-c3cccc(COc4cc(OCc5cncc(C#N)c5)c(CN5CCCCC5c5nnn[nH]5)cc4Cl)c3C)c2Cl)CC1 (stereo not drawn) [Example 1055, N-(1-(3-((3′-((4-((2-(1H-Tetrazol-5-yl)piperidin-1-yl)methyl)-2-chloro-5-((5-cyano-pyridin-3-yl)methoxy)phenoxy)methyl)-2-chloro-2′-methyl-[1,1′-biphenyl]-3-yl)oxy)-propyl)-piperidin-4-yl)acetamide] | 1.2 nM |
| Cc1c(COc2cc(OCc3cncc(C#N)c3)c(CNCc3cncs3)cc2Cl)cccc1-c1cccc(OCC2CCCN(C)C2)c1Cl (stereo not drawn) [Example 2576, 5-((4-chloro-5-((2′-chloro-2-methyl-3′-((1-methylpiperidin-3-yl)methoxy)-[1,1′-biphenyl]-3-yl)methoxy)-2-(((thiazol-5-ylmethyl)amino)methyl)phenoxy)methyl)nicotinonitrile] | 2.5 nM |
| Cc1c(COc2cc(OCc3cncc(C#N)c3)c(CN3CCCCC3c3cnn(C)c3)cc2Cl)cccc1-c1cccc(OCC2CCCN(C)C2)c1Cl (stereo not drawn) [Example 1022, 5-((4-Chloro-5-((2′-chloro-2-methyl-3′-((1-methylpiperidin-3-yl)methoxy)-[1,1′-biphenyl]-3-yl)methoxy)-2-((2-(1-methyl-1H-pyrazol-4-yl)piperidin-1-yl)methyl)phenoxy)-methyl)nicotinonitrile] | 1.3 nM |
| Cc1c(COc2cc(OCc3cncc(C#N)c3)c(CNCc3c[nH]cn3)cc2Cl)cccc1-c1cccc(OCc2cncnc2)c1Cl [Example 2062, 5-((2-((((1H-imidazol-4-yl)methyl)amino)methyl)-4-chloro-5-((2′-chloro-2-methyl-3′-(pyrimidin-5-ylmethoxy)-[1,1′-biphenyl]-3-yl)methoxy)phenoxy)methyl)nicotinonitrile] | 7.6 nM |
| Cc1c(COc2cc(OCc3cncc(C#N)c3)c(CNCc3ccnn3C)cc2Cl)cccc1-c1cccc(OCC2CCCN(C)C2)c1Cl (stereo not drawn) [Example 2614, 5-((4-chloro-5-((2′-chloro-2-methyl-3′-((1-methylpiperidin-3-yl)methoxy)-[1,1′-biphenyl]-3-yl)methoxy)-2-((((1-methyl-1H-pyrazol-5-yl)methyl)amino)methyl)phenoxy)methyl)nicotinonitrile] | 1.7 nM |
| Cc1c(COc2cc(OCc3cncc(C#N)c3)c(CNCc3c[nH]cn3)cc2Cl)cccc1-c1cccc(OCC2CCCN(CCC(F)(F)F)C2)c1Cl (stereo not drawn) [Example 2065, 5-((2-((((1H-imidazol-4-yl)methyl)amino)methyl)-4-chloro-5-((2′-chloro-2-methyl-3′-((1-(3,3,3-trifluoropropyl)piperidin-3-yl)methoxy)-[1,1′-biphenyl]-3-yl)methoxy)phenoxy)methyl)nicotinonitrile] | 28 nM |
| Cc1c(COc2cc(OCc3cncc(C#N)c3)c(CN3CCc4c(ncn4C)C3)cc2Cl)cccc1-c1cccc(OCC2CCCN(C)C2)c1Cl (stereo not drawn) [Example 2592, 5-((4-chloro-5-((2′-chloro-2-methyl-3′-((1-methylpiperidin-3-yl)methoxy)-[1,1′-biphenyl]-3-yl)methoxy)-2-((1-methyl-1,4,6,7-tetrahydro-5H-imidazo[4,5-c]pyridin-5-yl)methyl)phenoxy)methyl)nicotinonitrile] | 3.6 nM |
| [2H]C([2H])([2H])C(NCc1cc(Cl)c(OCc2cccc(-c3cccc(OCC4CCCN(C)C4)c3Cl)c2C)cc1OCc1cncc(C#N)c1)(c1ncon1)C([2H])([2H])[2H] (stereo not drawn) [Example 2624, 5-((2-(((2-(1,2,4-oxadiazol-3-yl)propan-2-yl-1,1,1,3,3,3-d6)amino)methyl)-4-chloro-5-((2′-chloro-2-methyl-3′-((1-methylpiperidin-3-yl)methoxy)-[1,1′-biphenyl]-3-yl)methoxy)phenoxy)methyl)nicotinonitrile] | 3 nM |
| Cc1c(COc2cc(OCc3cncc(C#N)c3)c(CNCc3csc(N)n3)cc2Cl)cccc1-c1cccc(OCCCN2CC[C@@H](O)C2)c1C [Example 2520, (R)-5-((2-((((2-aminothiazol-4-yl)methyl)amino)methyl)-4-chloro-5-((3′-(3-(3-hydroxypyrrolidin-1-yl)propoxy)-2,2′-dimethyl-[1,1′-biphenyl]-3-yl)methoxy)phenoxy)methyl)nicotinonitrile] | 3.1 nM |
| Cc1c(COc2cc(OCc3cccnn3)c(CNCc3cn[nH]c3)cc2Cl)cccc1-c1cccc(OCC2CCCN(C)C2)c1Cl (stereo not drawn) [Example 2054, N-((1H-pyrazol-4-yl)methyl)-1-(5-chloro-4-((2′-chloro-2-methyl-3′-((1-methylpiperidin-3-yl)methoxy)-[1,1′-biphenyl]-3-yl)methoxy)-2-(pyridazin-3-ylmethoxy)phenyl)methanamine] | 5.6 nM |
| CC(=O)NC1CCN(CCCOc2cccc(-c3cccc(COc4cc(OCc5cncc(C#N)c5)c(CNc5nnn[nH]5)cc4Cl)c3C)c2Cl)CC1 [Example 1056, N-(1-(3-((3′-((4-(((1H-Tetrazol-5-yl)amino)methyl)-2-chloro-5-((5-cyanopyridin-3-yl)-methoxy)phenoxy)methyl)-2-chloro-2′-methyl-[1,1′-biphenyl]-3-yl)oxy)propyl)piperidin-4-yl)acetamide] | 1.8 nM |
